Reference: US9149038B2, “4-amino-6-(heterocyclic)picolinates and 6-amino-2-(heterocyclic)pyrimidine-4-carboxylates and their use as herbicides” (Dow AgroSciences LLC, priority 2013, dated 2015)
Where two headings read alike, the source gives them in different places.

Key:
[1] = system: Key Broadleaf Weed and Crop Species; test: Post-Emergent Test II: postemergent herbicidal activity, visual rating after 14 d (Table 7); assay type: in vivo; details: post-emergence, 336 h; for pest or weed control at 35 g/ha: 35 g ai/ha; for pest or weed control at 70 g/ha: 70 g ai/ha; for pest or weed control at 140 g/ha: 140 g ai/ha
Outline: (§1)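 Post-emergence foliar spray, 187 L/ha, first/second true leaf stage plants in potting mix (pH 6.0-6.8). Rates: top rate and 2-fold serial dilutions to 1/16×. Solvent-blank controls. Readout: visual % kill at 14 d.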

[2] = system: Key Grass and Sedge Weeds as well as Grass Crops; test: Post-Emergent Test II: postemergent herbicidal activity, visual rating after 14 d (Table 8); assay type: in vivo; details: post-emergence, 336 h; for pest or weed control at 35 g/ha: 35 g ai/ha; for pest or weed control at 70 g/ha: 70 g ai/ha; for pest or weed control at 140 g/ha: 140 g ai/ha
Outline: as §1

[3] = ABUTH: velvetleaf (Abutilon theophrasti), read-out: Visual Growth Reduction (%) 14 Days After Application ABUTH
[4] = AMARE: redroot pigweed (Amaranthus retroflexus), read-out: Visual Growth Reduction (%) 14 Days After Application AMARE
[5] = BRSNN: oilseed rape, canola (Brassica napus), read-out: Visual Growth Reduction (%) 14 Days After Application BRSNN
[6] = CHEAL: lambsquarters (Chenopodium album), read-out: Visual Growth Reduction (%) 14 Days After Application CHEAL
[7] = EPHHL: wild poinsettia (Euphorbia heterophylla), read-out: Visual Growth Reduction (%) 14 Days After Application EPHHL
[8] = HELAN: sunflower (Helianthus annuus), read-out: Visual Growth Reduction (%) 14 Days After Application HELAN
[9] = barnyardgrass (Echinochloa crus-galli), read-out: Visual Growth Reduction (%) 14 Days After Application, ECHCG
[10] = giant foxtail (Setaria faberi), read-out: Visual Growth Reduction (%) 14 Days After Application, SETFA
[11] = maize, corn (Zea mays), read-out: Visual Growth Reduction (%) 14 Days After Application, ZEAMX
[12] = rice (Oryza sativa), read-out: Visual Growth Reduction (%) 14 Days After Application, ORYSA
[13] = wheat, spring (Triticum aestivum), read-out: Visual Growth Reduction (%) 14 Days After Application, TRZAS
[14] = yellow nutsedge (Cyperus esculentus), read-out: Visual Growth Reduction (%) 14 Days After Application, CYPES

Structure (SMILES)	pest or weed control at 35 g/ha [1, 3] [%]	pest or weed control at 70 g/ha [1, 3] [%]	pest or weed control at 140 g/ha [1, 3] [%]	pest or weed control at 35 g/ha [1, 4] [%]	pest or weed control at 70 g/ha [1, 4] [%]	pest or weed control at 140 g/ha [1, 4] [%]	pest or weed control at 35 g/ha [1, 5] [%]	pest or weed control at 70 g/ha [1, 5] [%]	pest or weed control at 140 g/ha [1, 5] [%]	pest or weed control at 35 g/ha [1, 6] [%]	pest or weed control at 70 g/ha [1, 6] [%]	pest or weed control at 140 g/ha [1, 6] [%]	pest or weed control at 35 g/ha [1, 7] [%]	pest or weed control at 70 g/ha [1, 7] [%]	pest or weed control at 140 g/ha [1, 7] [%]	pest or weed control at 35 g/ha [1, 8] [%]	pest or weed control at 70 g/ha [1, 8] [%]	pest or weed control at 140 g/ha [1, 8] [%]	pest or weed control at 35 g/ha [2, 9] [%]	pest or weed control at 70 g/ha [2, 9] [%]	other results
COc1c(N)nc(-c2ccc(Cl)c3c2OC(F)(F)O3)nc1C(=O)O [Compound 96]	75 to 84	60 to 74	85 to 94	95 to 100	95 to 100	95 to 100	0 to 29	75 to 84	85 to 94	95 to 100	95 to 100	95 to 100	0 to 29	0 to 29	0 to 29	95 to 100	95 to 100	95 to 100	0 to 29	0 to 29	pest or weed control at 140 g/ha [2, 9]: 0 to 29%; pest or weed control at 35 g/ha [2, 10]: 0 to 29%; pest or weed control at 70 g/ha [2, 10]: 0 to 29%; pest or weed control at 140 g/ha [2, 10]: 0 to 29%; pest or weed control at 35 g/ha [2, 11]: 30 to 44%; pest or weed control at 70 g/ha [2, 11]: 60 to 74%; pest or weed control at 140 g/ha [2, 11]: 60 to 74%; pest or weed control at 35 g/ha [2, 12]: 0 to 29%; pest or weed control at 70 g/ha [2, 12]: 0 to 29%; pest or weed control at 140 g/ha [2, 12]: 0 to 29%; pest or weed control at 35 g/ha [2, 13]: 0 to 29%; pest or weed control at 70 g/ha [2, 13]: 30 to 44%; pest or weed control at 140 g/ha [2, 13]: 45 to 59%; pest or weed control at 35 g/ha [2, 14]: 0 to 29%; pest or weed control at 70 g/ha [2, 14]: 0 to 29%; pest or weed control at 140 g/ha [2, 14]: 0 to 29%
COC(=O)c1nc(-c2c(F)ccc3c2OC(F)(F)O3)cc(N)c1Cl [Compound 90, Methyl 4-amino-3-chloro-6-(2,2,5-trifluorobenzo[d][1,3]dioxol-4-yl)picolinate]	60 to 74	75 to 84	85 to 94	95 to 100	95 to 100	95 to 100	0 to 29	0 to 29	60 to 74	85 to 94	95 to 100	95 to 100	0 to 29	0 to 29	0 to 29	0 to 29	0 to 29	0 to 29	0 to 29	0 to 29	pest or weed control at 140 g/ha [2, 9]: 0 to 29%; pest or weed control at 35 g/ha [2, 10]: 0 to 29%; pest or weed control at 70 g/ha [2, 10]: 0 to 29%; pest or weed control at 140 g/ha [2, 10]: 0 to 29%; pest or weed control at 35 g/ha [2, 11]: 0 to 29%; pest or weed control at 70 g/ha [2, 11]: 0 to 29%; pest or weed control at 140 g/ha [2, 11]: 0 to 29%; pest or weed control at 35 g/ha [2, 12]: 0 to 29%; pest or weed control at 70 g/ha [2, 12]: 0 to 29%; pest or weed control at 140 g/ha [2, 12]: 0 to 29%; pest or weed control at 35 g/ha [2, 13]: 0 to 29%; pest or weed control at 70 g/ha [2, 13]: 0 to 29%; pest or weed control at 140 g/ha [2, 13]: 0 to 29%; pest or weed control at 35 g/ha [2, 14]: 0 to 29%; pest or weed control at 70 g/ha [2, 14]: 0 to 29%; pest or weed control at 140 g/ha [2, 14]: 0 to 29%
COC(=O)c1nc(-c2ccc(F)c3c2OC(F)(F)O3)cc(N)c1Cl [Compound 88]	60 to 74	85 to 94	85 to 94	95 to 100	95 to 100	95 to 100	60 to 74	60 to 74	75 to 84	85 to 94	85 to 94	95 to 100	0 to 29	0 to 29	0 to 29	30 to 44	60 to 74	60 to 74	0 to 29	0 to 29	pest or weed control at 140 g/ha [2, 9]: 0 to 29%; pest or weed control at 35 g/ha [2, 10]: 0 to 29%; pest or weed control at 70 g/ha [2, 10]: 0 to 29%; pest or weed control at 140 g/ha [2, 10]: 0 to 29%; pest or weed control at 35 g/ha [2, 11]: 0 to 29%; pest or weed control at 70 g/ha [2, 11]: 0 to 29%; pest or weed control at 140 g/ha [2, 11]: 0 to 29%; pest or weed control at 35 g/ha [2, 12]: 0 to 29%; pest or weed control at 70 g/ha [2, 12]: 0 to 29%; pest or weed control at 140 g/ha [2, 12]: 0 to 29%; pest or weed control at 35 g/ha [2, 13]: 0 to 29%; pest or weed control at 70 g/ha [2, 13]: 45 to 59%; pest or weed control at 140 g/ha [2, 13]: 60 to 74%; pest or weed control at 35 g/ha [2, 14]: 30 to 44%; pest or weed control at 70 g/ha [2, 14]: 60 to 74%; pest or weed control at 140 g/ha [2, 14]: 75 to 84%
